Source: patent publication US7691874B2, “Neuroprotective properties of dextrorotatory morphinans” (priority 2004, dated 2010)
Marks after values point to notes of the source that are not given here.

Key:
[1] = system: cocaine-treated mice; assay: Cocaine-induced Fos-related antigen-immunoreactivity (FRA-IR) in the striatum; conditions: cocaine 5 mg/kg; morphinan 20 mg/kg i.p.
[2] = system: MA-treated mice; assay: Striatal dopamine and metabolites in MA-treated mice; type: in vivo; conditions: for Concentration DA in the striatum: 3 days after final MA
Source text: Mice were sacrificed at 3 days after final MA injection.

[3] = target: σ1 receptors (Homo sapiens, UniProt Q99720); conditions: cited from earlier work
Sequence of σ1 receptors (Q99720 whole entry): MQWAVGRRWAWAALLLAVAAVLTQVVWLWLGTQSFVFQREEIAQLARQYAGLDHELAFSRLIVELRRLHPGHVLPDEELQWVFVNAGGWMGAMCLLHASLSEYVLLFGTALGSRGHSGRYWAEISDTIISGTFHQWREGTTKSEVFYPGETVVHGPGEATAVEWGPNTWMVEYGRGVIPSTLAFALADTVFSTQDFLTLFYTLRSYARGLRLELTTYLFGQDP

[4] = system: kainate or maximal electric shock; conditions: kainate (24) or maximal electric shock (27); cited from earlier work
[5] = system: MPTP-treated mice; assay: Hypokinesia (reduction in locomotor activity) induced by MPTP; type: in vivo; conditions: 12 or 24 mg/kg i.p. 30 min before MPTP (20 mg/kg/day x 7), last three days
[6] = system: NMDA receptor associated PCP sites; conditions: cited from earlier work
[7] = system: LPS-treated mice; assay: Hypokinesia induced by intrastriatal LPS; conditions: 12 or 24 mg/kg, twice before bilateral intrastriatal LPS
[8] = system: MPTP-treated mice; assay: Striatal dopamine and metabolites (HPLC-EC) in MPTP-treated mice; conditions: for Concentration DA in the striatum: mean ± S.E.M., 8 animals
Description: Each morphinan was administered 30 min prior to every injection of MPTP for last three days (from day 4th to day 7th). Animals were sacrificed 24 h after the last MPTP treatment.
Brains were rapidly removed and cut into 1 mm coronal sections on ice. The striatum was punched using a fine pasteur pipette (3, 21, 22), and stored at −70° C. DA and its metabolites, 3,4-dihydroxyphenylacetic acid (DOPAC) and homovanilic acid (HVA) were measured by HPLC-eletrochemical detection (3, 21, 22). Briefly, the striatum was homogenized in 0.2 M perchloric acid containing 3,4-dihydroxybenzylamine as an internal standard (10 mg wet weight of tissue per ml). The homogenate was centrifuged and a 20-μl aliquot of the supernatant was injected into the HPLC equipped with an ODS-C18 column. The mobile phase was comprised of 26 ml of acetonitrile, 21 ml of tetrahydrofuran and 960 ml of 0.15 M monochloroacetic acid (pH 3.0) containing 50 mg/l of EDTA and 200 mg/l of sodium octyl sulfate. The amount of DA, DOPAC and HVA were determined by comparison of peak height ratio of tissue sample with standards, and were expressed in nanograms per 100 mg of wet weight of tissue.
Each morphinan was administered 30 min before every injection of MPTP for last three days. Animals were sacrificed at 24 h after the last MPTP injection.

[9] = system: MA-treated mice; assay: Nigral TH-IR in MA-treated mice; conditions: 24 mg/kg i.p.
[10] = system: LPS-treated mice; assay: Striatal dopamine and metabolites in LPS-treated mice; type: in vivo; conditions: for Concentration DA in the striatum: 3 weeks after LPS
Source text: Control animals received striatal injection with PBS.
Mice were sacrificed at 3 weeks after LPS treatment.

[11] = system: C57 BL/6 mice; assay: Locomotor activity and locomotor pattern following repeated administration of morphinans or PCP; type: in vivo; conditions: for locomotor pattern (tracings): 40 mg/kg i.p. (PCP 5 mg/kg), FIG. 3; for marginal activity (circling behaviour; absolute turn angular): 20 or 40 mg/kg i.p./day x 7 (PCP 2.5 or 5 mg/kg), 3-min period; for marginal activity (circling behaviour; absolute turn angular) / locomotor activity (total distance moved): vs saline; for locomotor activity (total distance moved): 20 or 40 mg/kg i.p./day x 7 days, 30 min after final treatment
[12] = system: MA-treated mice; assay: MA-induced hyperlocomotion; type: in vivo; conditions: morphinan 20 mg/kg i.p. 30 min before MA 1 mg/kg i.p./day x 7
Description: FIGS. 39A-39D show effect of morphinans on the MA-induced hyperactivity in the mice. Each morphinan (20 mg/kg, i.p.) was administered 30 minutes prior to MA (1 mg/kg, i.p.). All treatments were performed for 7 days.

[13] = system: cocaine-treated mice; assay: Cocaine-induced hyperlocomotion; type: in vivo; conditions: for effect on locomotor activity induced by low dose of cocaine: cocaine 5 mg/kg i.p. x 7 days, morphinan 15 or 30 mg/kg (DF 20 mg/kg) i.p.; for effect on hyperactivity induced by high dose of cocaine: cocaine 20 mg/kg i.p. x 7 days, morphinan 15 or 30 mg/kg i.p. 30 min before
Description: FIGS. 34A-34B show effect of morphinans on the cocaine-induced hyperactivity in the mice. Morphinans (15 and 30 mg/kg, i.p.) were administered 30 minutes prior to cocaine (5 and 20 mg/kg, i.p.). Central activity means relatively non-specific locomotor activity in the center of the box. Marginal activity means circling behaviors. All treatments were performed for 7 days.
FIGS. 35A-35D show effect of dimemorfan (DF) on cocaine-induced hyperactivity in the mice. DF (20 mg/kg, i.p.) was administered 30 minutes prior to cocaine (5 and 20 mg/kg, i.p.). All treatments were performed for 7 days.

[14] = system: MA-treated mice; assay: Methamphetamine (MA)-induced hyperthermia; type: in vivo; conditions: 24 mg/kg; MA 7.5 mg/kg i.p. x 4 at 2-h intervals
Description: Rectal temperature was recorded at 40 min after each MA treatment. […] Mice were sacrificed at 3 days after final MA injection.
FIGS. 10A-10B show effect of morphinans on the methamphetamine (MA)-induced hyperthermia. Mice received i.p. injections of MA (four injections of 7.5 mg/kg each) at 2-h intervals under the ambient temperature of 22.0±0.5° C. Temperatures were recorded at 40 min after each MA treatment (Arrow=MA injection).

[15] = system: MA-treated mice; assay: MA-induced FRA-IR in the striatum; conditions: morphinan 20 mg/kg i.p.; MA 1 mg/kg i.p./day x 7
Description: Therefore, brains were removed and used for immunocytochemical analysis at 18 h after the final cocaine/MA treatment. The coronal sections containing striatum were processed for FRA immunocytochemistry. […] The FRA antibody was used at 1:2,000 as the optimal dilution. The FRA-IR in the striatum was calculated using image analysis systems with a polaroid digital microscopic camera (Optimas version 6.2).

[16] = system: MA-treated mice; assay: MA-induced behavioural sensitization; conditions: morphinan 20 mg/kg i.p., last 3 days of wash-out (Ex. 3.12)
Description: Morphinans (20 mg/kg, i.p.) were administered last 3 days of wash-out period.

[17] = system: C57 BL/6 mice; assay: Conditioned place preference (psychological dependence) following repeated administration of morphinans or PCP; type: in vivo; conditions: 20 or 40 mg/kg i.p. (PCP 2.5 or 5 mg/kg); vs saline
Description: On day 14, the guillotine doors were raised. […] Data were analyzed between 0900 and 1700 hr.

[18] = system: MA-treated mice; assay: Hypokinesia induced by MA; type: in vivo; conditions: 12 and 24 mg/kg; 3 days after final MA
[19] = target: CB1 receptor (Rattus norvegicus, UniProt P20272); type: biochemical
Sequence of CB1 receptor (P20272 whole entry): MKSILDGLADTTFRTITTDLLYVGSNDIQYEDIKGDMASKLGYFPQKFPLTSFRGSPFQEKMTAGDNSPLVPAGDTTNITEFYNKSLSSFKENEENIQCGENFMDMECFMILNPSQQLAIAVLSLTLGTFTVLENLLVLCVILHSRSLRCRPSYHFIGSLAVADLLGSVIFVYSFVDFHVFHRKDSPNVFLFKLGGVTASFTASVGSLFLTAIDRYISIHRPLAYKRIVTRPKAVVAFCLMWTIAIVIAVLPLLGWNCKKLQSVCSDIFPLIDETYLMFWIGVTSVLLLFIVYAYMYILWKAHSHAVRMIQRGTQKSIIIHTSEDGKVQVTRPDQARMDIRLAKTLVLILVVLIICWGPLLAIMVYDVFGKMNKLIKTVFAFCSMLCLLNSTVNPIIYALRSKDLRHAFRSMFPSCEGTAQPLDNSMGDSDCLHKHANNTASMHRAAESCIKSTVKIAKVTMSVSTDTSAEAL

Structure (SMILES): C=CCOc1ccc2c(c1)[C@@]13CCCC[C@H]1[C@@H](C2)N(C)CC3 [AM, 3-allyloxy-17-methylmorphinan]
- effect on cocaine-induced FRA-IR in the striatum [1]: apparently attenuated
- effect on MA-induced reductions in striatal DA, DOPAC and HVA ([2]; 24 mg/kg pretreatment): significantly protected
- Concentration DOPAC in the striatum ([2]; morphinan 12 (mg/kg) + MA): 89 ± 9 ng/100 mg wet tissue
- Concentration HVA in the striatum ([2]; morphinan 12 (mg/kg) + MA): 79 ± 9 ng/100 mg wet tissue
- Concentration DA in the striatum ([2]; morphinan 12 (mg/kg) + MA, mean ± S.E.M., 8 animals): 601 ± 62 ng/100 mg wet tissue
- Concentration DOPAC in the striatum ([2]; morphinan 24 (mg/kg) + MA): 96 ± 10^b ng/100 mg wet tissue
- Concentration HVA in the striatum ([2]; morphinan 24 (mg/kg) + MA): 92 ± 10^b ng/100 mg wet tissue
- Concentration DA in the striatum ([2]; morphinan 24 (mg/kg) + MA): 749 ± 64^b ng/100 mg wet tissue
- affinity for σ1 receptors [3]: high affinity ligands
- anticonvulsant effect [4]: exhibited anticonvulsant effects
- effect on MPTP-induced reduction in locomotor activity [5]: neither AM nor DF affected significantly the locomotor hypoactivity
- affinity for NMDA receptor associated PCP sites [6]: very low affinities
- effect on LPS-induced decrease in locomotor activity [7]: neither AM nor DF were effective in attenuating locomotor hypoactivity
- effect on MPTP-induced reductions in striatal DA, DOPAC and HVA ([8]; 24 mg/kg pretreatment): did not alter reductions in DA, DOPAC and HVA
- Concentration DOPAC in the striatum ([8]; morphinan 12 (mg/kg) + MPTP): 54 ± 6 ng/100 mg wet tissue
- Concentration HVA in the striatum ([8]; morphinan 12 (mg/kg) + MPTP): 69 ± 5 ng/100 mg wet tissue
- Concentration DA in the striatum ([8]; morphinan 12 (mg/kg) + MPTP): 468 ± 52 ng/100 mg wet tissue
- Concentration DOPAC in the striatum ([8]; morphinan 24 (mg/kg) + MPTP): 66 ± 8 ng/100 mg wet tissue
- Concentration HVA in the striatum ([8]; morphinan 24 (mg/kg) + MPTP): 78 ± 7 ng/100 mg wet tissue
- Concentration DA in the striatum ([8]; morphinan 24 (mg/kg) + MPTP): 539 ± 64 ng/100 mg wet tissue
- effect on MA-induced decrease in nigral TH-positive cells [9]: significantly attenuated the decrease in TH-positive cells
- effect on LPS-induced reductions in striatal DA, DOPAC and HVA ([10]; 24 mg/kg pretreatment): did not alter LPS-induced reductions in DA, DOPAC and HVA levels
- Concentration DOPAC in the striatum ([10]; morphinan 12 (mg/kg) + LPS): 64 ± 8 ng/100 mg wet tissue
- Concentration HVA in the striatum ([10]; morphinan 12 (mg/kg) + LPS): 75 ± 6 ng/100 mg wet tissue
- Concentration DA in the striatum ([10]; morphinan 12 (mg/kg) + LPS, mean ± S.E.M., 8 animals): 454 ± 55 ng/100 mg wet tissue
- Concentration DOPAC in the striatum ([10]; morphinan 24 (mg/kg) + LPS): 66 ± 7 ng/100 mg wet tissue
- Concentration HVA in the striatum ([10]; morphinan 24 (mg/kg) + LPS): 70 ± 8 ng/100 mg wet tissue
- Concentration DA in the striatum ([10]; morphinan 24 (mg/kg) + LPS): 452 ± 49 ng/100 mg wet tissue
- locomotor pattern (tracings) [11]: did not produce significant marginal activity
- marginal activity (circling behaviour; absolute turn angular) [11]: did not significantly affect marginal activity
- locomotor activity (total distance moved) [11]: appeared to increase locomotor activity slightly
- effect on MA-induced hyperlocomotion [12]: consistently effective in attenuating hyperlocomotion induced by MA
- effect on locomotor activity induced by low dose of cocaine [13]: consistently attenuated locomotor activity induced by a low dose of cocaine
- effect on hyperactivity induced by high dose of cocaine [13]: not uniform
- effect on MA-induced hyperthermia (rectal temperature) [14]: attenuated by all morphinans used in this study
- effect on MA-induced FRA-IR in the striatum [15]: apparently attenuated
- effect on MA-induced behavioural sensitization [16]: significantly reduced
- conditioned place preference (CPP) [17]: almost no CPP effects
- effect on MA-induced reduction in locomotor activity [18]: significantly prevented MA-induced reduction in locomotor activity

Structure (SMILES): CCCCCCC(C)(C)c1ccc([C@@H]2C[C@H](O)CC[C@H]2CCCO)c(O)c1 [CP55,940, [1α, 2β-(R)-5α]-(−)-5-(1,1-dimethyl)-2-[5-hydroxy-2-(3-hydroxypropyl)cyclohexyl-phenol], reference compound]
- stimulation of GTP γS binding [19]: about 120%

Structure (SMILES): CN1CC[C@]23CCCC[C@H]2[C@H]1Cc1ccc(O)cc13 [DX, 3-hydroxy-17-methylmorphinan, reference compound]
- affinity for σ1 receptors [3]: high affinity ligands
- locomotor pattern (tracings) [11]: produced marginal activity
- marginal activity (circling behaviour; absolute turn angular) [11]: significant increase in marginal activity
- locomotor activity (total distance moved) [11]: significantly increased locomotor activity
- conditioned place preference (CPP) [17]: produced CPP in a dose-dependent manner

Structure (SMILES): COc1ccc2c(c1)[C@@]13CCCC[C@H]1[C@@H](C2)NCC3 [MM, 3-methoxymorphinan, reference compound]
- effect on cocaine-induced FRA-IR in the striatum [1]: Neither DM nor MM affects this induction of FRA-IR
- effect on locomotor activity induced by low dose of cocaine [13]: did not influence locomotor activity mediated by a low dose of cocaine
- effect on hyperactivity induced by high dose of cocaine [13]: attenuated

Structure (SMILES): c1ccc(C2(N3CCCCC3)CCCCC2)cc1 [PCP, phencyclidine, reference compound]
- locomotor pattern (tracings) [11]: produced marginal activity
- marginal activity (circling behaviour; absolute turn angular) [11]: much stronger stereotypies
- conditioned place preference (CPP) [17]: most significant CPP
